{"source": "patent US10525101B2", "about": "“Methods of treating inflammatory or autoimmune disorders with compounds that bind macrophage migration inhibitory factor” (Oregon Health & Science University, priority 2015, dated 2020)", "molecules": {"B1": {"name": "DRα1-MOG-35-55: second generation derivative of RTL1000, partial MHC molecule DRα1 construct that binds CD74 (protein)", "chain": "MEVGWYRSPFSRVVHLYRNGKGGGGSLVPRGSGGGGIKEEHVIIQAEFYLNPDQSGEFMFDFDGDEIFHVDMAKKETVWRLEEFGRFASFEAQGALANIAVDKANLEIMTKRSNYTPITN"}}, "key": {"human MIF (hMIF)": {"target": "T1, human MIF (hMIF) (Homo sapiens, UniProt P14174)", "T1 sequence (P14174 2-115 limits assumed)": "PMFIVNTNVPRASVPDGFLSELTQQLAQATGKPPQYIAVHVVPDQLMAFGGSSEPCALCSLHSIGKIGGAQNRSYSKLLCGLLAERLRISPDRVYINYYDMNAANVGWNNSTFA", "test": "Competition ELISA: peptides blocking rmCD74 binding to plate-coated hMIF", "conditions": "FIG. 2A/2B", "method": "The ability of α-helix 1 and α-helix 2 peptides to compete with MIF for binding to CD74 was tested. Briefly, 50 μl of hMIF at a concentration of 0.5 μg/ml in PBS was coated onto ELISA plates for 2 hours at RT, washed 4 times with […] of PBS/0.0125% T20, blocked with 300 μl of 5% BSA in PBS, pH 7.4 for 2 hours at room temperature, and then a mixture of rmCD74 (constant concentration of 0.5 μg/ml) and competitor (SEQ ID NO: 2, SEQ ID NO: 4) at an initial concentration of 66 μM (33 μM each, mixed or 66 μM each, separately) in 5% BSA/PBS was added to the wells for 3 hours at room temperature to allow binding. Wells were thoroughly washed with PBS/T20 and the mAb PIN.1/anti-mIgG1-HRP (at 0.5 μg/ml in 5% BSA/PBS each) was used to detect the remaining rmCD74 bound to MIF. This mAb recognizes an epitope located at the N-terminus of the protein. Color was developed after adding 50 μl of TMB for 5 minutes and the reaction was stopped with 50 μl of 0.1N HCl. Data was first normalized and then analyzed using GraphPad Prism software. IC50 were calculated by fitting the curve to a competition model involving a two-binding site equation."}, "DRα1mMOG-35-55": {"tested_on": "DRα1mMOG-35-55", "test": "Competition ELISA: peptides competing with rmCD74 for binding to plate-coated DRα1mMOG-35-55", "conditions": "for competition with CD74 for binding to DRα1-mMOG-35-55 (in words): FIG. 3A, FIGS. 4A/4B; for IC50: FIGS. 4A and 4B, peptides combined or alone, read-out: IC50 for blocking rmCD74 binding to DRα1mMOG-35-55; for LogIC50 vs DRα1mMOG-35-55 / IC50 vs DRα1mMOG-35-55: Table 1, from FIG. 3A, one-binding site fit; for IC50 vs DRα1mMOG-35-55: rmCD74 50 nM", "method": "(§1) Competition of peptides with rmCD74 for binding to RTL1000 or DRα1mMOG35-55 was also tested. Briefly, 50 μl of 1 μg/ml either RTL1000 or DRα1mMOG-35-55 were coated onto ELISA plates at 25° C. for 2 hours. Each well was washed 4 times with 300 μl of PBS/0.0125% Tween 20 (PBS/T20) to remove excess of protein and then blocked with 5% BSA/PBS at pH 7.4 (BSA/PBS) for 2 hours at the same temperature. Serial 1:2 dilutions of α-helix 1 or α-helix 2 (starting with a concentration of 66 μM, 50 μg/ml each) were prepared in rmCD74 (in BSA/PBS, 50 nM, 0.5 ug/ml) and added to the plate. Competition for the binding site was allowed for 3 hours at 25° C. and then unbound complexes were washed 4 times with PBS/T20. Remaining rmCD74 bound to RTL1000 or DRα1mMOG-35-55 was detected by the PIN.1/anti-mouse IgG1-HRP at 1 ul/ml of both in BSA/PBS for 1.5 hours at 25° C. and visualized by adding TMB substrate (50 μl, according to the manufacturer's instructions). Color development was stopped with 0.1N HCl and the plate was read at 450 nm in an ELISA plate reader. Data were normalized and fitted to a one-binding site model and competitor concentration was plotted against Absorbance at 450 nm to determine the IC50 of each peptide competitor. All data were analyzed using Prism software (GraphPad)."}, "RTL1000": {"tested_on": "RTL1000", "test": "Competition ELISA: peptides competing with rmCD74 for binding to plate-coated RTL1000", "conditions": "for competition with CD74 for binding to RTL1000 (in words): FIG. 3A; for LogIC50 vs RTL 1000 / IC50 vs RTL 1000: Table 1, from FIG. 3A, one-binding site fit; for IC50 vs RTL 1000: rmCD74 50 nM, in µM", "method": "as §1"}, "[1]": {"tested_on": "experimental autoimmune encephalomyelitis (EAE)", "conditions": "mice with EAE, treated after onset of clinical signs; cited from earlier work"}}, "note": "Ends that are not written are not given here.", "data": [{"molecule": "TEDHVMHLLQNAD [α-helix 1]", "values": [{"measurement": "blocking of rmCD74 binding to human MIF (in words)", "setting": "human MIF (hMIF)", "result": "blocks CD74 binding to hMIF"}, {"measurement": "blocking of rmCD74 binding to human MIF (in words)", "setting": "human MIF (hMIF); listed as SEQ ID NO: 2", "result": "able to block"}, {"measurement": "competition with CD74 for binding to DRα1-mMOG-35-55 (in words)", "setting": "DRα1mMOG-35-55", "result": "able to outcompete"}, {"measurement": "IC50", "setting": "DRα1mMOG-35-55", "result": 35, "unit": "µM"}, {"measurement": "LogIC50 vs DRα1mMOG-35-55", "setting": "DRα1mMOG-35-55", "result": 1.002}, {"measurement": "IC50 vs DRα1mMOG-35-55", "setting": "DRα1mMOG-35-55", "result": 10.05}, {"measurement": "competition with CD74 for binding to RTL1000 (in words)", "setting": "RTL1000", "result": "able to outcompete"}, {"measurement": "LogIC50 vs RTL 1000", "setting": "RTL1000", "result": 0.8309}, {"measurement": "IC50 vs RTL 1000", "setting": "RTL1000", "result": 6.775}]}, {"molecule": "KGSFPENLRHLKNTMET [α-helix 2]", "values": [{"measurement": "blocking of rmCD74 binding to human MIF (in words)", "setting": "human MIF (hMIF)", "result": "to a lesser extent"}, {"measurement": "competition with CD74 for binding to DRα1-mMOG-35-55 (in words)", "setting": "DRα1mMOG-35-55", "result": "did not have a significant effect"}, {"measurement": "competition with CD74 for binding to DRα1-mMOG-35-55 (in words)", "setting": "DRα1mMOG-35-55; listed as SEQ ID NO: 4", "result": "competes to a lesser extent"}, {"measurement": "IC50", "setting": "DRα1mMOG-35-55", "result": 24.5, "unit": "µM"}, {"measurement": "LogIC50 vs DRα1mMOG-35-55", "setting": "DRα1mMOG-35-55", "result": 2.222}, {"measurement": "IC50 vs DRα1mMOG-35-55", "setting": "DRα1mMOG-35-55", "result": 166.6}, {"measurement": "competition with CD74 for binding to RTL1000 (in words)", "setting": "RTL1000", "result": "competes to a lesser extent"}, {"measurement": "LogIC50 vs RTL 1000", "setting": "RTL1000", "result": 1.535}, {"measurement": "IC50 vs RTL 1000", "setting": "RTL1000", "result": 34.27}]}, {"molecule": "B1", "values": [{"measurement": "effect on EAE (in words)", "setting": "[1]", "result": "reduced disease severity"}]}]}
